Data published in patent US12090149B2, “SMAD3 inhibitors” (Moexa Pharmaceuticals Limited, priority 2018, dated 2024).
Read-outs that look alike come from different tables or passages of the source.

Key:
[1] = Aqueous solubility assay (shake-flask, LC/MS/MS); assay type: physicochemical
B16-F10 syngeneic model = assay: Subcutaneous B16-F10 syngeneic model, tumor growth; assay type: in vivo, C57BL/6 mice; conditions: 30 mg/kg q.d. * 3W i.p.
CYP2D6 = target: T1, CYP2D6 (Homo sapiens, UniProt P10635); assay: Cytochrome P450 inhibition assay, human liver microsomes, CYP2D6; assay type: in vitro ADME
T1 construct: CONSTRUCT DETAILS: Microsomes; from tissue; host or cells: human liver microsomes
T1 sequence (P10635 whole entry): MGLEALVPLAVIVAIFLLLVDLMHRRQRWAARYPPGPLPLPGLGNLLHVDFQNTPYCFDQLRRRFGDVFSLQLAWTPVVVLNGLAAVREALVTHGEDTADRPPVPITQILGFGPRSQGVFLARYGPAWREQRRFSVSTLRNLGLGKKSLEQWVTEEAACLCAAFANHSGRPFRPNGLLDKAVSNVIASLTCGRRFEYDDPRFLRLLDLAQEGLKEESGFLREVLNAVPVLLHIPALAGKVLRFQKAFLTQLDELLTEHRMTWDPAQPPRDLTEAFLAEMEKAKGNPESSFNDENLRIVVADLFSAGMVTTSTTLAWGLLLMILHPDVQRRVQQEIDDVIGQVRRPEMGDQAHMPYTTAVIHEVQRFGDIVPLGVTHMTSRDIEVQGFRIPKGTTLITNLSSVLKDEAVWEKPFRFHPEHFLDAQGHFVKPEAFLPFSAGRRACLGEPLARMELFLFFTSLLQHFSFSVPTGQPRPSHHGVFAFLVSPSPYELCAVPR

[2] = Body weight of tumor bearing mice in the B16-F10 syngeneic model; assay type: in vivo, C57BL/6 mice
Description: • Animal species and strain: C57BL/6 mice • History of treatment: Naive • Sex, age and weight: Female, 6-8 weeks • Breeder/supplier: Shanghai SLAC Laboratory Animal Co. Ltd • Adaptation: At least 7 days • Room: SPF Room • Room temperature: 20-26° C. • Room relative humidity: 40-70% • Light cycle: Fluorescent light for 12-hour light (08:00-20:00) and 12-hour dark • Animal hosting: 2-5 mice/cage each group • Food: Free access to food • Water: Free access to water (municipal tap water filtered by reverse osmosis or high-pressure sterilizer)
B16-F10 cells (3×10^5 in 100 μL of serum-free medium) were inoculated to each of C57BL/6 mice via s.c. under anesthesia by 3-4% isoflurane. Each group contains 15 mice.
When average tumor volume reached 35-60 mm^3, 15 mice were randomized into group 6. The day of inoculation was denoted as day 0.
Body weight was measured on Day 4, 5, 6, 8, 11, 13, 15 and 18 after inoculation. When required, body weight was measured daily.
Results were expressed as mean±S.E.M. Comparisons between two groups were made by Dunnett's multi-comparison test, p<0.05 were considered as significant.

CYP3A4 = CYP3A4 (Homo sapiens, UniProt P08684); assay: Cytochrome P450 inhibition assay, human liver microsomes, CYP3A4; conditions: for inhibition at 10 µM: human
CYP3A4, sequence (P08684 whole entry): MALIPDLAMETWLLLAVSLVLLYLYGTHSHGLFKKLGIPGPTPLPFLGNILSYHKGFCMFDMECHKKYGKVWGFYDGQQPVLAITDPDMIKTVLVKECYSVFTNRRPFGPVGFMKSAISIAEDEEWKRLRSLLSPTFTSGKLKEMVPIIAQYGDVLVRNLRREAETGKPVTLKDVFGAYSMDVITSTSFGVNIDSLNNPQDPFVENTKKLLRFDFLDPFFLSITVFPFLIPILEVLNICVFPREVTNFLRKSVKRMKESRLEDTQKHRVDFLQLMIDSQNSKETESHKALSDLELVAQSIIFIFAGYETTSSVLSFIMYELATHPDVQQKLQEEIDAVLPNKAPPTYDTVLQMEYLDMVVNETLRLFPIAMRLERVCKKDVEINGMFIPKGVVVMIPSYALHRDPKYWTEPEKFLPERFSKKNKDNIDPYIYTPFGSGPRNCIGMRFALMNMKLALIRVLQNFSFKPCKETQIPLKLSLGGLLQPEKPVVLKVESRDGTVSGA

[3] = Aqueous solubility assay (shake-flask, LC/MS/MS); assay type: physicochemical; conditions: for Conc. Of Sample (ug/mL), aqueous solubility / solubility at 24 h: 25° C., 24 hours, SIS3 hydrochloride salt, MO-00005 free base; for solubility at 24 h: thermodynamic from solid, read-out: Conc. Of Sample (ug/mL), aqueous solubility
Description: Poorly soluble compounds can dramatically reduce productivity in drug discovery and development. Solubility assays involve assessment of kinetic solubility (from DMSO stock solution) using a shake-flask technique in a plate format and LC/MS/MS analysis.
• Analytical Column: YMC ODS-AM S-3 120A, 3×50 mm column with Guard. • Flow Rate: 500 ul/min • Mobil Phase: Isocratic 50% acetonitrile: 50% 20 mM Ammonium Acetate pH 4. Back Pressure: 1400 psi • Column Temperature: Ambient, • Autosampler Setting: Injection Volume: 5 ul, Loop Volume: 100 ul, Tray Temperature: 4° C. • Needle wash: Vial position 100. Needle wash solution: 50% Methanol water
• Component Mass Molarity • Sodium bicarbonate (mw: 84 g/mol) 0.11628 g 0.0461 M • Sodium carbonate (anhydrous) (mw: 106 g/mol) 0.17127 g 0.0539 M • Tris Buffer pH 7.7 (100 mL) • Add 0.363 g of tris to 30 mL water. Check pH at room temperature the pH should be 7.7 with acetic acid. • Acetate Buffer pH 3.6 (30 mL) • Component Mass Molarity • Sodium Acetate (anhydrous) (mw: 82 g/mol) 0.01188 g 0.0048 M • Acetic Acid (mw: 60.05 g/mol) 0.17145 g 0.0952 M (0.17145 g=[…])
Then run all samples at this dilution. • (xi) Run samples in duplicate and estimate aqueous solubility.
As such, it may be expected that the hydrochloride salt will have better solubility in unbuffered aqueous solutions. There the thermodynamic equilibrium dissolution concentrations of both compounds were determined also in buffered solutions at pH 4, 7.7, and 10.4 in addition to unbuffered water.

CYP2C9 = target: T2, CYP2C9 (Homo sapiens, UniProt P11712); assay: Cytochrome P450 inhibition assay, human liver microsomes, CYP2C9; assay type: in vitro ADME
T2 construct: CONSTRUCT DETAILS: Microsomes; from tissue; host or cells: human liver microsomes
T2 sequence (P11712 whole entry): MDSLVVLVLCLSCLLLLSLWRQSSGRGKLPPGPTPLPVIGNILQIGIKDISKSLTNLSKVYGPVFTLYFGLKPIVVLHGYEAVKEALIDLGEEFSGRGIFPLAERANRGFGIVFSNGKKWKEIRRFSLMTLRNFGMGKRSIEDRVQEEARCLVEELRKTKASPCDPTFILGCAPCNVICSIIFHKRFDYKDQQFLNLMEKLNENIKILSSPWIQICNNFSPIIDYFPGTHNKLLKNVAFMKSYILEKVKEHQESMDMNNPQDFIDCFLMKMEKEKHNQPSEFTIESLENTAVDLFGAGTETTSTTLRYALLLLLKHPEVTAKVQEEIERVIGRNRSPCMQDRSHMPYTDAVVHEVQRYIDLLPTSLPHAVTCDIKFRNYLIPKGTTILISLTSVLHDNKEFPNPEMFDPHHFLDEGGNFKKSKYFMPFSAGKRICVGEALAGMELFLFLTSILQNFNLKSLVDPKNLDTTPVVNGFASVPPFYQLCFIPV
Description: • SUBSTRATE: Diclofenac

[4] = Day 13, calculated based on tumor volume of Day 8
[5] = Day 15, calculated based on tumor volume of Day 8
[6] = Day 18, calculated based on tumor volume of Day 8
[7] = 10 mg/kg q.d. * 3W i.p., Day 11
[8] = 10 mg/kg q.d. * 3W i.p., Day 13
[9] = 10 mg/kg q.d. * 3W i.p., Day 15
[10] = 10 mg/kg q.d. * 3W i.p., Day 18
[11] = 30 mg/kg q.d. * 3W i.p., Day 11
[12] = 30 mg/kg q.d. * 3W i.p., Day 13
[13] = 30 mg/kg q.d. * 3W i.p., Day 15
[14] = 30 mg/kg q.d. * 3W i.p., Day 18

| Structure (SMILES) | Tumor growth inhibition (%) TGI (B16-F10 syngeneic model; [4]) [%] | Tumor growth inhibition (%) TGI (B16-F10 syngeneic model; [5]) [%] | Tumor growth inhibition (%) TGI (B16-F10 syngeneic model; [6]) [%] | Body weight (g) Mean ([2]; 10 mg/kg q.d. * 3W i.p., Day 1) [g] | Body weight (g) Mean ([2]; 10 mg/kg q.d. * 3W i.p., Day 4) [g] | Body weight (g) Mean ([2]; 10 mg/kg q.d. * 3W i.p., Day 5) [g] | Body weight (g) Mean ([2]; 10 mg/kg q.d. * 3W i.p., Day 6) [g] | Body weight (g) Mean ([2]; 10 mg/kg q.d. * 3W i.p., Day 8) [g] | Body weight (g) Mean [2, 7] [g] | Body weight (g) Mean [2, 8] [g] | Body weight (g) Mean [2, 9] [g] | Body weight (g) Mean [2, 10] [g] | Body weight (g) Mean ([2]; 30 mg/kg q.d. * 3W i.p., Day 1) [g] | Body weight (g) Mean ([2]; 30 mg/kg q.d. * 3W i.p., Day 4) [g] | Body weight (g) Mean ([2]; 30 mg/kg q.d. * 3W i.p., Day 5) [g] | Body weight (g) Mean ([2]; 30 mg/kg q.d. * 3W i.p., Day 6) [g] | Body weight (g) Mean ([2]; 30 mg/kg q.d. * 3W i.p., Day 8) [g] | Body weight (g) Mean [2, 11] [g] | Body weight (g) Mean [2, 12] [g] | Body weight (g) Mean [2, 13] [g] | also measured |
| --- | --- | --- | --- | --- | --- | --- | --- | --- | --- | --- | --- | --- | --- | --- | --- | --- | --- | --- | --- | --- | --- |
| COc1cc2c(cc1OC)CN(C(=O)/C=C/c1c(-c3ccccc3)n(C)c3ncccc13)CC2.Cl [SIS3, reference compound] | 39 | 27 | 25 | 16.72 | 16.64 | 16.55 | 16.50 | 16.83 | 17.53 | 17.84 | 19.04 | 20.77 | 16.72 | 16.66 | 16.55 | 16.59 | 16.69 | 17.30 | 17.53 | 18.45 | Conc. Of Sample (ug/mL), aqueous solubility ([1]; pH 10.63 buffer, 25° C., 24 hours, SIS3 hydrochloride salt, MO-00005 free base): 2.4 µg/mL; CYP2D6 inhibition (HLM, dextromethorphan substrate) Inhibition (%) (CYP2D6; 10 uM): 19.1641%; Body weight (g) Mean [2, 14]: 20.70 g; CYP3A inhibition (HLM, midazolam substrate) Inhibition (%) (CYP3A4; 10 uM, midazolam substrate): 20.5499%; CYP3A inhibition (HLM, testosterone substrate) Inhibition (%) (CYP3A4; 10 uM, testosterone substrate): 9.294%; Conc. Of Sample (ug/mL), aqueous solubility ([3]; pH 4.03 buffer): 17.2 µg/mL; Conc. Of Sample (ug/mL), aqueous solubility ([3]; pH 7.70 buffer): 7.0 µg/mL; Conc. Of Sample (ug/mL), aqueous solubility ([3]; unbuffered water): 17.7 µg/mL; CYP2C9 inhibition (HLM, diclofenac substrate) Inhibition (%) (CYP2C9; 10 uM): 79.7661% |
| COc1cc2c(cc1OC)CN(C(=O)/C=C/c1c(-c3ccccc3)nc3ccccn13)CC2 [Compound 8, (E)-1-(6,7-dimethoxy-3,4-dihydroisoquinolin-2(1H)-yl)-3-(2-phenylimidazo[1,2-a]pyridin-3-yl)prop-2-en-1-one] | 39 | 26 | 18 | 16.73 | 16.41 | 16.26 | 16.21 | 16.67 | 17.33 | 17.51 | 18.85 | 21.26 | 16.70 | 16.54 | 16.32 | 16.18 | 16.60 | 17.36 | 17.78 | 18.73 | solubility at 24 h ([1]; aqueous buffer pH 10.63, aqueous buffer, thermodynamic from solid, pH 10.63 buffer, 25° C., 24 hours, SIS3 hydrochloride salt, MO-00005 free base, read-out: Conc. Of Sample (ug/mL), aqueous solubility): 280 µg/mL; aqueous solubility relative to the solubility of SIS3 ([1]; pH 10.63): 117 times; inhibition at 10 µM (CYP2D6; probe dextromethorphan, dextromethorphan substrate, read-out: CYP2D6 inhibition (HLM, dextromethorphan substrate) Inhibition (%)): -2.74%; Body weight (g) Mean [2, 14]: 20.93 g; Body weight (g) Mean ([2]; 100 mg/kg q.d. * 3W i.p. (group 6), Day 11): 17.20 g; Body weight (g) Mean ([2]; 100 mg/kg q.d. * 3W i.p. (group 6), Day 13): 17.95 g; Body weight (g) Mean ([2]; 100 mg/kg q.d. * 3W i.p. (group 6), Day 15): 18.78 g; Body weight (g) Mean ([2]; 100 mg/kg q.d. * 3W i.p. (group 6), Day 18): 21.82 g; Body weight (g) Mean ([2]; 100 mg/kg q.d. * 3W i.p. (group 6, randomized at tumor volume 35-60 mm^3), Day 8): 17.36 g; inhibition at 10 µM (CYP3A4; probe midazolam): 41.3%; inhibition at 10 µM (CYP3A4; probe testosterone): 2.22%; solubility at 24 h ([3]; aqueous buffer pH 4.03, aqueous buffer, pH 4.03 buffer): 598 µg/mL; solubility at 24 h ([3]; aqueous buffer pH 7.70, pH 7.7, aqueous buffer, pH 7.70 buffer): 269 µg/mL; aqueous solubility relative to the solubility of SIS3 ([3]; pH of 4.0): 35 times; solubility at 24 h ([3]; unbuffered water): 321 µg/mL; inhibition at 10 µM (CYP2C9; probe diclofenac, diclofenac substrate, read-out: CYP2C9 inhibition (HLM, diclofenac substrate) Inhibition (%)): 66.9% |
